From publication PMC4942611, “Promising Tools in Prostate Cancer Research: Selective Non-Steroidal Cytochrome P450 17A1 Inhibitors” (Scientific Reports, 2016)

Target: T1, human CYP17A1 (Homo sapiens, UniProt P05093)
T1 construct: bearing a truncation of the N-terminal helix; made in house
T1 sequence (P05093 with tags, fused parts or gaps limits assumed): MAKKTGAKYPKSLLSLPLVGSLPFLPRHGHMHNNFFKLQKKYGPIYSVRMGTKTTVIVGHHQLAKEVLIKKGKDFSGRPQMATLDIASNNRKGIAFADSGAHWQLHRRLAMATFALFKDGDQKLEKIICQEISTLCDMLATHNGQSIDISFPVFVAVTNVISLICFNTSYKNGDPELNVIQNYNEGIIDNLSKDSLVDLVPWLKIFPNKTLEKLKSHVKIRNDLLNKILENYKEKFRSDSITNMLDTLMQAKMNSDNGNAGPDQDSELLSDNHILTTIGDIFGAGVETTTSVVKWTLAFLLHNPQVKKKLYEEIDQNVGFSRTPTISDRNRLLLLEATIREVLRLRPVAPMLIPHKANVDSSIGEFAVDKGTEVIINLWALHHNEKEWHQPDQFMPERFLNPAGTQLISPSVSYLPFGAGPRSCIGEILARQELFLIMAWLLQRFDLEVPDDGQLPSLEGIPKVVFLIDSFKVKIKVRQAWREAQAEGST
Assay: UV-VIS ligand binding assay (spectral titration) with purified CYP17A1
Details: 100 nM purified CYP17A1, mean over 2 measurements ± standard error
Method: Direct coordination of nitrogen-containing heterocycles to the haem iron in the active site of cytochrome P450 enzymes causes a shift of the Soret peak λmax to higher wavelengths. Thus, UV-visible absorbance spectra were recorded as purified CYP17A1 was titrated with the 19 hit compounds. Addition of compounds 1–7 (cf. Fig. 2 and S3) yielded characteristic shifts in λmax from 417 nm to as high as 427 nm, typical of direct coordination to the haem iron. Plots of the changes in absorbance as a function of concentration can be used to evaluate ligand binding affinity. […] Compounds 6 and 7 have substantial intrinsic absorbance overlapping the range of the protein spectral change. Therefore the binding constants could not be determined for these latter two compounds.
Human CYP17A1 bearing a truncation of the N-terminal helix and a 4x histidine tag on the C-terminus was expressed and purified as previously reported.
Ligand binding was measured based on a change in UV-VIS absorbance (ΔA) upon ligand addition. Purified recombinant human cytochrome P450 enzymes (100 nM) were titrated with ligands dissolved in DMSO in 5 cm path length cuvettes. CYP17A1 and CYP21A2 were prepared in 50 mM Tris-HCl, pH 7.4, 500 mM NaCl, 20% (v/v) glycerol, and 100 mM glycine. The buffer used to prepare CYP21A2 also contained 50 mM DTT. CYP3A4 and CYP2D6 were prepared in 50 mM potassium phosphate, pH 7.4, 250 mM NaCl, 20% (v/v) glycerol and 1 mM EDTA. In each case, heteroatom coordination to the haem iron yields an increase in absorbance at ~420 nm and a corresponding decrease at ~390 nm. The apparent binding constant (Kd) and the maximum spectral change (ΔAmax) were calculated from a nonlinear least-squares regression fit to the tight binding equation (2) using GraphPad Prism 6.03.

| Structure (SMILES) | Kd [nM] |
| --- | --- |
| Cc1ccc(-c2csc(-c3cccnc3)n2)c(C)c1 [Compound 1] | < 100 |
| CCCn1nnc2cc(-c3cc(-c4ccncc4)c(C#N)c(N)n3)ccc21 [Compound 2] | < 100 |
| C[C@]12CC[C@H](O)CC1=CC[C@@H]1[C@@H]2CC[C@]2(C)C(c3cccnc3)=CC[C@@H]12 [abiraterone, reference compound] | < 100 |
